ChEMBL document CHEMBL3045326, “Avocadofurans and their tetrahydrofuran analogues: comparison of growth inhibitory and insecticidal activity” (2000)
Activity calls are given as the source filed them. The calls are words filed in the database; no cut-off is given here.

Legend:
Spodoptera exigua [1] = test: Insecticidal activity against Spodoptera exigua larvae assessed as inhibition of larval growth at 5 umol/g of diet administered through compound containing diet after 7 days; format: functional
Spodoptera exigua [2] = test: Insecticidal activity against young Spodoptera exigua larvae assessed per ug of diet; format: functional
Spodoptera exigua [3] = test: Insecticidal activity against Spodoptera exigua larvae assessed as induction of larval mortality at 5 umol/g of diet administered through compound containing diet after 7 days; format: functional, organism-based
Spodoptera exigua [4] = test: Insecticidal activity against older Spodoptera exigua larvae assessed per ug of diet; format: functional

| SMILES | growth inhibition (GI) (Spodoptera exigua [1]) | LC50 (Spodoptera exigua [2]) [µM] | Activity (Spodoptera exigua [3]) | LC50 (Spodoptera exigua [4]) [µM] |
| --- | --- | --- | --- | --- |
| CCCCCCCCCCCCCCC1CCCO1 (stereo not drawn) | inactive | – | – | – |
| CCCCCCCCCCCCCCCCCCC1CCCO1 (stereo not drawn) | Active | – | – | – |
| CCCCCCCCCCCCCCCCC1CCCO1 (stereo not drawn) | inactive | – | – | – |
| CCCCCCCCCCCCCCCCCC1CCCO1 (stereo not drawn) [2-(HEPTADECYL)TETRAHYDROFURAN] | 59% | – | – | – |
| CCCCCCCCCCCCCCCCCc1ccco1 [2-(HEPTADECYL)FURAN] | 93% | ≥ 2 | Active | > 3 |
| CCCCCCCCCCCCCCCc1ccco1 | 98% | ≥ 2 | Active | > 3 |
| CCCCCCCCCCCCCCCC1CCCO1 (stereo not drawn) [2-PENTADECYLTETRAHYDROFURAN] | 45% | – | – | – |
